Here are results for two compounds from patent publication US20060035969A1, “Novel modulators of the PPAR-type receptors and cosmetic/pharmaceutical compositions comprised thereof” (GALDERMA RESEARCH & DEVELOPMENT, S.N.C., priority 2003, published 2006).

Holding throughout (assay type): cell-based
For one assay, the target named is T1, PPARγ (Homo sapiens, UniProt P37231).
T1 construct: It is a handle made for the test, not a second protein
T1 sequence (P37231 238-505 limits assumed): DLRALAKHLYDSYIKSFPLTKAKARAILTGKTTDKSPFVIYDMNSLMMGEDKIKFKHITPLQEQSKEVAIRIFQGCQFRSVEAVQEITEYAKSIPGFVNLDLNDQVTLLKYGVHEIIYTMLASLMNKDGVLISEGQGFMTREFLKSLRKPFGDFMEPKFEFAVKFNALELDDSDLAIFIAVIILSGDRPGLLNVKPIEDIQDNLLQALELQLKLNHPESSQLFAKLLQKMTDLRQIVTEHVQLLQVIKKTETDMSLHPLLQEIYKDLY
Briefly: Cross curve PPAR transactivation test (PPARγ). The conditions noted are these: HeLN cells stably transfected with ERE-βGlob-Luc-SV-Neo and Gal-hPPARγ; cross curves against reference agonist, Schild regression; read-out: PPAR gamma Kd app. The procedure:
(§1) The activation of receptors with an agonist (activator) in HeLN cells leads to the expression of a reporter gene, luciferase, which, in the presence of a substrate, generates light. The modulation of the receptors is measured as quantity of luminescence produced after incubating the cells in the presence of a reference agonist. The ligands will displace the agonist from its site. The measurement of the activity is performed by quantification of the light produced. This measurement makes it possible to determine the modulatory activity of the compounds according to the invention by determining the constant which is the affinity of the molecule for the receptor. Since this value can fluctuate according to the basal activity and the expression of the receptor, it is called apparent Kd (KdApp in nM).
(§2) To determine this constant, “cross curves” for the product to be tested against a reference agonist are produced in a 96-well plate: 10 concentrations of the test product plus a concentration 0 are placed in a line, and 7 concentrations of the agonist plus one concentration 0 are placed in a column. This is 88 measurement points for 1 product and 1 receptor. The 8 remaining wells are used for repeatability controls. […]
(§3) The various dilutions of the test products and of the reference ligand are added in an amount of 5 μl per well. […] After 5 minutes, the plates are read by the luminescence reader.

The target of a further assay is T2, PPARα (Homo sapiens, UniProt Q07869).
T2 construct: It is a handle made for the test, not a second protein
T2 sequence (Q07869 200-468 limits assumed): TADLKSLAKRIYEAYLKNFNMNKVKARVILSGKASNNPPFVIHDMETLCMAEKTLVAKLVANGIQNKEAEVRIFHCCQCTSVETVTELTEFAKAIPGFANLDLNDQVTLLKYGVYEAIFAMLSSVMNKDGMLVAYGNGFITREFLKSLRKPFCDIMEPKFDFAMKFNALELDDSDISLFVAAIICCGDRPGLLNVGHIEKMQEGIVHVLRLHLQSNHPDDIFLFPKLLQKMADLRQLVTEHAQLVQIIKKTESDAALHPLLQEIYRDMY
In words: Cross curve PPAR transactivation test (PPARα). The conditions noted are these: HeLN cells stably transfected with ERE-βGlob-Luc-SV-Neo and Gal-hPPARα; cross curves against reference agonist, Schild regression; read-out: PPAR alpha Kd app. The procedure: as §1, §2, §3

The next assay deals with T3, PPARδ (Homo sapiens, UniProt Q03181).
T3 construct: It is a handle made for the test, not a second protein
T3 sequence (Q03181 211-441 limits assumed): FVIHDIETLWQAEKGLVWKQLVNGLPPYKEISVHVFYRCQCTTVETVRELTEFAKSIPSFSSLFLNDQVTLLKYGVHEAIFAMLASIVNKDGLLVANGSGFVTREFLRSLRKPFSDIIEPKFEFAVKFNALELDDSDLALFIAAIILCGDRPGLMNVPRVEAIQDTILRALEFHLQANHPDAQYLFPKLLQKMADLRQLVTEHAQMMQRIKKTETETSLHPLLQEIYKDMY
Briefly: Cross curve PPAR transactivation test (PPARδ). The conditions noted are these: HeLN cells stably transfected with ERE-βGlob-Luc-SV-Neo and Gal-hPPARδ; cross curves against reference agonist, Schild regression; read-out: PPAR delta Kd app. The procedure:
as §1, §2, §3

Take `O=C(O)Cc1cccc(Sc2ccc(N(CCc3ccccc3)C(=O)NC3CCCCC3)cc2)c1` [Example 18b, {3-[4-(3-Cyclohexyl-1-phenethylureido)phenylsulfanyl]phenyl}acetic acid]: the Kd on PPARγ amounted to 30 nM; at PPARα, 250 nM; at PPARδ, 15 nM.

Turning to `CCCCCCCN(C(=O)NCCc1ccccc1)c1cccc(Sc2cccc(CC(=O)O)c2)c1` [Example 25b, {3-[3-(1-Heptyl-3-phenethylureido)phenylsulfanyl]phenyl}acetic acid], the Kd at PPARγ worked out at 500 nM; at PPARδ, 60 nM.
